Assay results published in patent US20190070170A1, “METHOD OF S[…]-1” (Macau University of Science and Technology, priority 2017, published 2019).

Experiments:
C/EBPβ = C/EBPβ phosphorylation and nuclear translocation in LPS-stimulated rat peritoneal macrophages (western blotting, immunofluorescence); assay type: cell-based; settings: SIN 1 h
Method: (§1) Sprague-Dawley (SD) rats from the University of Hong Kong were housed in cages with free access to food and water. Peritoneal macrophages of SD rats were isolated as described in Liu J. et al., Pharmacological research 2016, 111:303-315. Briefly, untreated rats were sacrificed and after laparotomy, about 50 ml cold sterile Hank's balanced salt solution (HBSS) was used to lavage the peritoneal cavity at twice, and then the peritoneal lavage fluid was collected and centrifuged at 1500 rpm for 10 min. The cell pellets was suspended at a density 1.5×10^6 cells/ml in pre-hearted DMEM medium with 10% heat-inactivated FBS, penicillin G (100 units/ml), streptomycin ([…]), and L-glutamine (2 mM), followed by seeding in 6-well plates at a density of 4.5×10^6 cells and incubation for 2 h. Then the medium were discarded to remove the non-adherent cells. The adherent cells were further washed for two times with pre-heated DMEM medium to remove floating cells. Next, cells were pre-treated with various concentration of SIN for 1 h, followed by stimulation with LPS (1 μg/ml).
Whole-cell and nuclear proteins were obtained using RIPA lysis buffer (CST, Boston, Mass., USA) and Nuclear and Cytoplasmic Extraction Reagents kit from Thermo Scientific (Asheville, N.C., USA), respectively. […] The levels of protein expression were measured using Odyssey v3.0 software from Li-COR (Lincoln, Nebr., USA). […]

[1] = system: carrageenan-induced paw edema; test: Carrageenan-induced rat paw edema model; assay type: in vivo, SD rats; settings: SIN 25, 50 and 100 mg/kg i.p. 2 h before carrageenan
Method: The model of carrageenan-induced paw edema was performed with SD rats (150-200 g). […] Briefly, rats were fasted for 12 h before experiment and intraperitoneal injection was performed with three different doses (25, 50 and 100 mg/kg) of SIN, or DEX (reference drug, 2 mg/kg) or 0.9% saline (Vehicle and Normal group rats), at 2 h prior to the induction of paw edema. Paw edema was induced by subcutaneous injection of 100 μl of 1% (w/v) freshly prepared λ-carrageenan (Sigma, St Louis, Mo., USA) diluted in saline in the right hind foot pad. 100 μl sterile saline was injected to the rats in the right hind paw as normal control. Paw volumes (ml) of right hind foot of each rat were measured using a plethysmometer (type 7150; UGO Basile, Comerio, Italy) at 0 h (before carrageenan injection) and then again at 1, 2, 3 and 4 h after the injection of carrageenan or saline. The percentage of paw edema of the right hind paws of all groups were calculated at different time points by the following equation: Swelling ratio in each time points=(the paw volume after injection−the paw volume before injection)/the paw volume before injection×100

iNOS = iNOS protein level in LPS-stimulated rat peritoneal macrophages (immunoblotting); assay type: cell-based; settings: pretreatment 1 h, LPS 1 μg/ml 24 h
Method: as §1
Whole-cell and nuclear proteins were obtained using RIPA lysis buffer (CST, Boston, Mass., USA) and Nuclear and Cytoplasmic Extraction Reagents kit from Thermo Scientific (Asheville, N.C., USA), respectively. […] The levels of protein expression were measured using Odyssey v3.0 software from Li-COR (Lincoln, Nebr., USA).

TNF-α = TNF-α level in LPS-stimulated rat peritoneal macrophages (ELISA); assay type: cell-based; settings: pretreatment 1 h, LPS 1 μg/ml 24 h
Method: as §1
RAW264.7 cells and rat peritoneal macrophages were seeded in a 96-well plate at density of 1.4×10^4 and 1.5×10^5 cells, respectively. […] The optical density was measured at 570 nm against a reference wavelength of 650 nm using a microplate UV/VIS spectrophotometer (Tecan, Mannedorf, Switzerland). […]

mPGES-1 = mPGES-1 protein in microsomes of inflamed paw of carrageenan-induced rats (western blotting); assay type: in vivo, SD rats; settings: SIN 25, 50, 100 mg/kg or DEX 2 mg/kg i.p.
Method: The model of carrageenan-induced paw edema was performed with SD rats (150-200 g). […] Briefly, rats were fasted for 12 h before experiment and intraperitoneal injection was performed with three different doses (25, 50 and 100 mg/kg) of SIN, or DEX (reference drug, 2 mg/kg) or 0.9% saline (Vehicle and Normal group rats), at 2 h prior to the induction of paw edema. Paw edema was induced by subcutaneous injection of 100 μl of 1% (w/v) freshly prepared λ-carrageenan (Sigma, St Louis, Mo., USA) diluted in saline in the right hind foot pad. 100 μl sterile saline was injected to the rats in the right hind paw as normal control.
After accomplish the experiment, rats were sacrificed by injection of dorminal, which contains 20% pentobarbital and followed by cervical dislocation. The paw tissues were removed and freshly frozen in liquid nitrogen immediately and stored at −80° C.
Frozen paws were pulverized in liquid nitrogen using a stainless steel mortar and pestle, then re-suspended in 8 volumes of ice-cold PBS from Invitrogen (San Diego, Calif., USA) with 2.6 mM DTT from Promega (Madison, Wis., USA) and 2×Complete Protease Inhibitor mixture from Roche (Mannheim, Germany), and homogenized on ice bath using a tissue homogenizer from T25 digital, IKA (Stanfen, Germany) at 10,000 rpm/min for 5 min. […] The protein concentrations were measured using a Bio-Rad protein assay kit (Hercules, Calif., USA). […]

Which results are given for COC1=C[C@@H]2[C@@H]3Cc4ccc(OC)c(O)c4[C@]2(CCN3C)CC1=O [SIN, sinomenine]?
LPS-induced phosphorylation of C/EBPβ (Ser105 and T235+T188) (C/EBPβ; LPS 30 min): inhibitory effects; LPS-induced nuclear translocation of C/EBPβ (C/EBPβ; LPS 2 h): inhibitory effects; paw edema (percentage of increase in paw volume) ([1]; at 2, 3 and 4 h): successfully reduced paw edema in a dose dependent manner; paw edema (percentage of increase in paw volume) ([1]; at 1 h): no effects; iNOS expression (iNOS): significantly inhibited; TNF-α production (TNF-α): significantly inhibited; mPGES-1 protein expression in inflamed paw tissues (mPGES-1): strongly down-regulated
